In PMC13289212, “HIVIL: A human in vitro inflammatory liver model recapitulates immune-associated drug effects with high predictivity” (NAM journal, 2025):
Like-named read-outs stand apart in the source and are kept apart here.

Columns and labels:
[1] = system: IL-6; assay: IL-6 ELISA in HIVIL (iKCs co-cultured with iHeps, LPS, 48 hr); format: cell-based, human; settings: HIVIL; for IC50: Homo sapiens, LPS, 48 hr
Text: (§1) Human iPSC cell line iPS (IMR90)-4 was purchased from WiCell Research Institute (Madison, WI), and maintained with a feeder-free method according to the instruction from […] Technologies (Vancouver, BC, Canada). The protocol of differentiation towards iKCs and iHeps as described previously with slight modification ([Tasnim et al., 2019]; [Cai et al., 2012]), respectively. […] More details are provided in Supplementary Methods. After differentiation, iKCs was harvested using 0.05 % trypsin-EDTA (Gibco, Waltham, Massachusetts, USA), while iHeps were dissociated with TrypLE^TM (Gibco). iHep suspension was further filtered through a 40 µm cell strainer to remove extracellular matrix clumps. Cell suspension was centrifuged at 1000 rpm for 5 min. For co-culture set up, tissue culture plates were coated with Rat tail collagen I (Gibco) diluted 100-fold in 0.02 N acetic acid, and incubated at 37 °C for 1 h and washed 3 times with PBS. According to the protocol optimized by [Tasnim et al. (2019)], iKCs was firstly seeded at a density of 14,000 per well on 96-well plate with Advanced DMEM (plus supplements) containing 5 % FBS. On the following day, iHeps were added at a density of 35,000 per well in Williams’ Medium E (plus supplements) (iHep: iKCs ratio = 2.5: 1). This reflects the physiological ratio of these cells in vivo under inflammatory conditions ([Tasnim et al., 2021]). Fresh media containing drugs was applied to co-cultures the next day. 50,000 cells were seeded to establish iHeps monoculture. THP-1 cells were kindly obtained from Dr. Eliza Fong and cultured as described by [Zeng et al. (2015)]. Details provided in Supplementary Methods.
(§2) Stock solutions of drugs were prepared in dimethyl sulfoxide (DMSO) and dissolved in medium prior to use. […] For these two drugs, the highest DMSO concentration was 1 %. Supernatant was collected at 48 hr for measurement of cytokines, and remaining cells were subjected to viability assay prior to lysis for RNA extraction.
(§3) Enzyme-linked immunosorbent assay (ELISA) for measurement of cytokines: Interleukin-6 (IL-6), interleukin-10 (IL-10) and tumor necrosis factor alpha (TNFα) levels in the media were measured using the corresponding human-based ELISA kits (Abcam, Cambridge, United Kingdom) according to manufacturer’s instructions. The cytokine production from dosed cells was normalized with the viability value from the same well. The normalized cytokine level upon drug treatments was further presented as percentage of DMSO+LPS. […] This normalization approach has been used in previous studies (Rose et al. 2016).

[2] = system: IL-6; assay: IL-6 response in HIVIL using THP-1 macrophages co-cultured with iHeps; format: cell-based, human; settings: HIVIL with THP-1 instead of iKCs, result in words
Text: Human iPSC cell line iPS (IMR90)-4 was purchased from WiCell Research Institute (Madison, WI), and maintained with a feeder-free method according to the instruction from […] Technologies (Vancouver, BC, Canada). The protocol of differentiation towards iKCs and iHeps as described previously with slight modification ([Tasnim et al., 2019]; [Cai et al., 2012]), respectively. The re-optimized protocol to generate iKCs is discussed in Results section. More details are provided in Supplementary Methods. After differentiation, iKCs was harvested using 0.05 % trypsin-EDTA (Gibco, Waltham, Massachusetts, USA), while iHeps were dissociated with TrypLE^TM (Gibco). iHep suspension was further filtered through a 40 µm cell strainer to remove extracellular matrix clumps. Cell suspension was centrifuged at 1000 rpm for 5 min. For co-culture set up, tissue culture plates were coated with Rat tail collagen I (Gibco) diluted 100-fold in 0.02 N acetic acid, and incubated at 37 °C for 1 h and washed 3 times with PBS. According to the protocol optimized by [Tasnim et al. (2019)], iKCs was firstly seeded at a density of 14,000 per well on 96-well plate with Advanced DMEM (plus supplements) containing 5 % FBS. On the following day, iHeps were added at a density of 35,000 per well in Williams’ Medium E (plus supplements) (iHep: iKCs ratio = 2.5: 1). This reflects the physiological ratio of these cells in vivo under inflammatory conditions ([Tasnim et al., 2021]). Fresh media containing drugs was applied to co-cultures the next day. 50,000 cells were seeded to establish iHeps monoculture. THP-1 cells were kindly obtained from Dr. Eliza Fong and cultured as described by [Zeng et al. (2015)]. Details provided in Supplementary Methods.
THP-1 maintenance and differentiation: THP-1 monocytic lineage was maintained in RPMI 1640 with 10% FBS. For differentiation to macrophages, suspension cells were collected and subjected to 2-day phorbol 12-myristate 13-acetate (PMA) treatment (50 ng/ml), followed by a 1-day PMA-free medium resting. THP-1 macrophages were trypsinzed and used for co-culture as described in Material and methods.
(§4) Enzyme-linked immunosorbent assay (ELISA) for measurement of cytokines: Interleukin-6 (IL-6), interleukin-10 (IL-10) and tumor necrosis factor alpha (TNFα) levels in the media were measured using the corresponding human-based ELISA kits (Abcam, Cambridge, United Kingdom) according to manufacturer’s instructions. The cytokine production from dosed cells was normalized with the viability value from the same well. The normalized cytokine level upon drug treatments was further presented as percentage of DMSO+LPS. Normalization to viability per well ensures that any changes in cytokines are not due to changes in cell numbers upon drug treatment and normalization to DMSO+LPS allows better comparison between different batches of experiments. This normalization approach has been used in previous studies (Rose et al. 2016).

[3] = Cammett et al. 2009, Mendes et al. 2014, cited from earlier work
[4] = system: IL-6; parameters: method as in Steuerwald et al. 2013; Mahdy et al. 2002; Kang et al. 2001; settings: ref Steuerwald et al. 2013; Mahdy et al. 2002; Kang et al. 2001; cited from earlier work
[5] = binary classification by human hepatotoxicity; ref Thakkar et al. 2020; cited from earlier work
[6] = system: IL-6; parameters: method as in ref Hassan et al. 2016; Giustarini et al. 2019; Higuchi et al. 2012; Dik et al. 2018; settings: ref Hassan et al. 2016; Giustarini et al. 2019; Higuchi et al. 2012; Dik et al. 2018; cited from earlier work
[7] = FDA-labeling information; ref Chen et al. 2016; cited from earlier work
[8] = system: IL-6; settings: 858.6 μM, 1 μg/mL of LPS; ref Li et al. 2020; cited from earlier work
[9] = system: cytokines; parameters: method as in ref Ganey et al. 2004; Honarmand et al. 2012; Manna and Aggarwal 1999; Yao et al. 2004; settings: ref Ganey et al. 2004; Honarmand et al. 2012; Manna and Aggarwal 1999; Yao et al. 2004; cited from earlier work
[10] = system: TNFα; assay: TNFα ELISA in HIVIL (iKCs co-cultured with iHeps, LPS, 48 hr); format: cell-based, human; settings: for TNFα induction: result in words
Text: as §1, §2, §3

[11] = system: HIVIL (iKCs co-cultured with iHeps); assay: AlamarBlue cell viability in HIVIL; settings: Homo sapiens, 48 h, read-out: IC50: viability
Experimental: as §2

[12] = system: TNFα; settings: ref Shaw et al. 2010; Zou et al. 2009; Bekker et al. 2012; Gandhi et al. 2013; Heidari et al. 2019; cited from earlier work
[13] = ref Ho et al. 2015; Kaplowitz 2005; Verma and Kaplowitz 2009; cited from earlier work
[14] = system: IL-6; assay: IL-6 production of iKC mono-culture; format: cell-based, human; settings: result in words
Experimental: as §4

[15] = system: iKCs mono-culture
Experimental: Cell viability assays: Cell viability was examined with AlamarBlue^TM cell viability assay (Thermo Fisher Scientific Inc.) according to manufacturer’s instructions. Briefly, cells were exposed to AlamarBlue^TM working solution, which was diluted 10-fold using PBS containing 2 mg/mL of glucose, for 1 hour. Color change in the solution was measured using fluorescence (Ex: 530nm, Em: 590nm) in Tecan Microplate Reader M1000 PRO. The viability of dosed cells was presented as percentage of the corresponding vehicle control.

[16] = system: IL-6; assay: Optimization of stimulator and duration: IL-6 production; format: cell-based, human
Text: In order to evaluate the time-dependent inflammatory responses, we measured interleukin-6 (IL-6) production within 48 hr post-LPS treatment.

[17] = ref in each cell: Ademisoye et al. 2018, Xu et al. 2008, Agabeyoglu and Incecayir 2009, Rojanasthien et al. 2007, Reunanen et al. 1992, Li et al. 2002, Hong-mei et al. 2013, Bareggi et al. 1987, Jiang et al. 2008

Compound | drug-specific IL-6 response with THP-1 macrophages [2] | Cmax [3, 17] | Reported human responses: IL-6 [4] | DILIst [5] | group by drug-dependent IL-6 production [1] | DILIrank [7] | also measured
CCN(CC)Cc1cc(Nc2ccnc3cc(Cl)ccc23)ccc1O [AQ, amodiaquine] | failed to replicate IL-6 increases | 0.1 µM | IL-6↑ (Steuerwald et al. 2013) | 1 | – | – | IL-6 induction ([1]; 10 μM): 1.47 fold
NC(=O)N1c2ccccc2C=Cc2ccccc21 [CBZ, carbamazepine] | – | 25.3 µM | – | 1 | dose-dependent induction | most | increase in IL-6 [1]: 1.7 fold; Reported in-vivo (murine) responses: IL-6 [6]: IL-6↑(Higuchi et al. 2012)
NNC(=O)c1ccncc1 [INH, isoniazid] | failed to replicate IL-6 increases | – | IL-6↑ (Steuerwald et al. 2013) | 1 | – | most | IL-6 induction ([1]; all doses tested): at least 1.2 fold; Reported in-vivo (murine) responses: IL-6 [6]: IL-6↑ (Hassan et al. 2016); changes in IL-6 levels [8]: did not show any changes
Cc1oncc1C(=O)Nc1ccc(C(F)(F)F)cc1 [LFM, leflunomide] | – | 24.8 µM | – | 1 | dose-dependent induction | most | increase in IL-6 [1]: 3.1 fold; Reported in-vivo (murine) responses: cytokines [9]: cytokines↓ via NF-kB (Manna and Aggarwal 1999; Yao et al. 2004)
Nc1nnc(-c2cccc(Cl)c2Cl)c(N)n1 [LTG, lamotrigine] | failed to replicate IL-6 increases | 9.8 µM | IL-6↑(Steuerwald et al. 2013) | 1 | – | most | dose-dependent increase in IL-6 levels over baseline [1]: 1.5- to 2 fold
Cc1ccnc2c1NC(=O)c1cccnc1N2C1CC1 [NVP, nevirapine] | – | – | – | 1 | dose-dependent inhibition | most | IC50 [1]: 1.07 mM; TNFα induction [10]: all concentrations; IC50 [11]: 2.61 mM; Reported in-vivo (murine) responses: TNFα [12]: TNFα↑ (Bekker et al. 2012)
O=C1NC(=O)C(c2ccccc2)(c2ccccc2)N1 [PHT, phenytoin] | failed to replicate IL-6 increases | 15.4 µM | IL-6↑ (Steuerwald et al. 2013) | 1 | – | most | dose-dependent increase in IL-6 levels over baseline [1]: 1.5- to 2 fold
CCCc1cc(=O)[nH]c(=S)[nH]1 [PTU, propylthiouracil] | – | 17.6 µM | – | 1 | dose-dependent inhibition | most | IC50 [1]: 0.259 mM; TNFα induction [10]: all concentrations; Cmax ([3]; ref in each cell: Xu et al. 2008): 17.6 µM; Reported in-vivo (murine) responses: TNFα [12]: TNFα↑ (Heidari et al. 2019)
NC(=O)c1cnccn1 [PZA, pyrazinamide] | – | 407 µM | – | 1 | no dose-dependent changes | less | Known immune-mediated effects [13]: ×
CC1=C(CC(=O)O)c2cc(F)ccc2/C1=C\c1ccc([S+](C)[O-])cc1 (stereo not drawn) [SLD, sulindac] | – | – | mechanistic IL-6↓ (Kang et al. 2001) | 1 | dose-dependent inhibition | most | reduction of IL-6 [1]: 50%; IC50 [1]: 0.381 mM; dose at which TNFα induction was observed [10]: < 200 µM; IC50 [11]: 2.06 mM; IL-6 / cytokine production in iKC mono-culture [14]: abolished; toxicity to iKCs mono-culture compared to iHeps mono-culture and HIVIL [15]: substantially higher toxicity; Reported in-vivo (murine) responses: TNFα [12]: TNFα↑ (Zou et al. 2009)
CN(C/C=C/C#CC(C)(C)C)Cc1cccc2ccccc12 [TBF, terbinafine] | – | 3.4 µM | – | 1 | no dose-dependent changes | most | Known immune-mediated effects [13]: ×
lipopolysaccharide [LPS] | – | – | – | – | – | – | IL-6 production compared to vehicle control ([16]; 24 hr post-LPS treatment): 10.15 fold; IL-6 production compared to vehicle control ([16]; 48 hr post-LPS treatment): 4.70 fold
penicillin | – | – | – | 1 | no dose-dependent changes | less | Known immune-mediated effects [13]: ×
